Experimental data: US20240041042A1, “1-(PYRIDYL)-5-AZINYLPYRAZOLE DERIVATIVES, AND THEIR USE FOR CONTROL OF UNDESIRED PLANT GROWTH” (Bayer Aktiengesellschaft, priority 2020, published 2024)
Read-outs that look alike come from different tables or passages of the source.

Columns and labels:
Type in all cases: in vivo
[1] = tested on: Echinochloa crus-galli (ECHCG); experiment: Pre-emergence herbicidal action against ECHCG; settings: dosage 320 g/ha
How it was run: (§1)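 Read-out is visual percent damage relative to untreated pots, with 100% meaning dead plants and 0% meaning no difference, assessed roughly three weeks after treatment. Compounds were applied pre-emergence to the covering soil at up to 320 g/ha.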

[2] = tested on: Setaria viridis (SETVI); experiment: Pre-emergence herbicidal action against SETVI; settings: dosage 320 g/ha
How it was run: as §1

[3] = tested on: Amaranthus retroflexus (AMARE); experiment: Post-emergence herbicidal action against AMARE
How it was run: (§2)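 Values are percent visual activity (0% like control, 100% plants dead) after about 3 weeks in the greenhouse. Treatment: post-emergence spray at one-leaf stage, 600 l/ha spray volume, 0.5% additive, doses 320 g/ha or lower.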

[4] = tested on: Matricaria inodora (MATIN); experiment: Pre-emergence herbicidal action against MATIN; settings: dosage 320 g/ha
How it was run: as §1

[5] = tested on: Viola tricolor (VIOTR); experiment: Post-emergence herbicidal action against VIOTR
How it was run: as §2

[6] = tested on: Lolium rigidum (LOLRI); experiment: Post-emergence herbicidal action against LOLRI; settings: dosage 320 g/ha
How it was run: as §2

[7] = tested on: Echinochloa crus-galli (ECHCG); experiment: Post-emergence herbicidal action against ECHCG; settings: dosage 320 g/ha
How it was run: as §2

[8] = tested on: Polygonum convolvulus (POLCO); experiment: Post-emergence herbicidal action against POLCO; settings: dosage 320 g/ha
How it was run: as §2

[9] = tested on: Verconica persica (VERPE); experiment: Post-emergence herbicidal action against VERPE
How it was run: as §2

[10] = tested on: Zea mays (ZEAMX); settings: for Post-emergence action against ZEAMX in %: crop plant compatibility, 80 g/ha, effect vs untreated controls
How it was run: (§3)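 Effects were read visually as % versus untreated controls (0% = no effect, 100% = death) about 3 weeks post-treatment. Application was a post-emergence spray at the one-leaf stage of WP/EC formulations with 0.5% additive at 600 l/ha. Different dosages are denoted a, b and c.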

[11] = tested on: Triticum aestivum (TRZAS); settings: crop plant compatibility, 80 g/ha, effect vs untreated controls
How it was run: as §3

[12] = tested on: Pharbitis purpurea (PHBPU); experiment: Post-emergence herbicidal action against PHBPU; settings: dosage 320 g/ha
How it was run: as §2

[13] = tested on: Setaria viridis (SETVI); experiment: Post-emergence herbicidal action against SETVI
How it was run: as §2

[14] = tested on: Matricaria inodora (MATIN); experiment: Post-emergence herbicidal action against MATIN
How it was run: as §2

[15] = tested on: Alopecurus myosuroides (ALOMY); experiment: Post-emergence herbicidal action against ALOMY; settings: visual rating about 3 weeks after treatment vs untreated controls (100% = plants have died, 0% = like control plants)
How it was run: as §2

[16] = tested on: Polygonum convolvulus (POLCO); experiment: Pre-emergence herbicidal action against POLCO
How it was run: as §1

[17] = tested on: Zea mays (ZEAMX); settings: pre-emergence, crop plant compatibility, in comparison to untreated controls
From the text: Seeds of monocotyledonous and dicotyledonous weed plants and crop plants are placed in plastic or organic planting pots and covered with soil. The compounds of the invention, formulated in the form of wettable powders (WP) or as emulsion concentrates (EC), are then applied to the surface of the covering soil as aqueous suspension or emulsion with addition of 0.5% additive at a water application rate equivalent to 600 l/ha. After the treatment, the pots are placed in a greenhouse and kept under good growth conditions for the trial plants. After about 3 weeks, the effect of the preparations is scored visually in comparison with untreated controls as percentages. For example, 100% activity=the plants have died, 0% activity=like control plants.
The observed effects on selected crop plants are reported here in comparison to the untreated controls (values in %). The appendices “a” “b” and “c” give differentiation by dosage used with otherwise the same crop plants tested.

[18] = tested on: Avena fatua (AVEFA); experiment: Post-emergence herbicidal action against AVEFA; settings: 320 g/ha, visual rating about 3 weeks after treatment
How it was run: as §2

[19] = tested on: Alopecurus myosuroides (ALOMY); experiment: Pre-emergence herbicidal action against ALOMY; settings: scored visually after about 3 weeks, 100% = plants have died
How it was run: as §1

[20] = tested on: Amaranthus retroflexus (AMARE); experiment: Pre-emergence herbicidal action against AMARE; settings: visual scoring after about 3 weeks vs untreated controls
How it was run: as §1

[21] = tested on: Lolium rigidum (LOLRI); experiment: Pre-emergence herbicidal action against LOLRI; settings: dosage 320 g/ha
How it was run: as §1

[22] = tested on: Oryza sativa (ORYSA); settings: crop plant compatibility
How it was run: as §3

[23] = tested on: Abutilon theophrasti (ABUTH); experiment: Post-emergence herbicidal action against ABUTH; settings: 320 g/ha, visual rating about 3 weeks after treatment vs untreated controls (100% = plants have died, 0% = like control plants)
How it was run: as §2

[24] = tested on: Pharbitis purpurea (PHBPU); experiment: Pre-emergence herbicidal action against PHBPU; settings: dosage 320 g/ha
How it was run: as §1

[25] = tested on: Avena fatua (AVEFA); experiment: Pre-emergence herbicidal action against AVEFA; settings: 320 g/ha, visual scoring after about 3 weeks vs untreated controls
How it was run: as §1

[26] = tested on: Verconica persica (VERPE); experiment: Pre-emergence herbicidal action against VERPE; settings: dosage 320 g/ha
How it was run: as §1

[27] = tested on: Viola tricolor (VIOTR); experiment: Pre-emergence herbicidal action against VIOTR; settings: 320 g/ha, Viola tricolor
How it was run: as §1

[28] = 80 g/ha, visual rating about 3 weeks after treatment vs untreated controls (100% = plants have died, 0% = like control plants)
[29] = 320 g/ha, visual rating about 3 weeks after treatment
[30] = 80 g/ha, effect in comparison to untreated controls

Compound | Pre-emergence action against ECHCG in % [1] | Pre-emergence action against SETVI in % [2] | Post-emergence action against AMARE in % [3, 28] | Post-emergence action against AMARE in % [3, 29] | Pre-emergence action against MATIN in % [4] | Post-emergence action against ECHCG in % [7] | Post-emergence action against POLCO in % [8] | Post-emergence action against VERPE in % ([9]; 320 g/ha, VERPE) | Post-emergence action against ZEAMX in % [10] | Post-emergence action against PHBPU in % [12] | Post-emergence action against SETVI in % ([13]; dosage 320 g/ha) | Post-emergence action against MATIN in % ([14]; dosage 80 g/ha) | Post-emergence action against MATIN in % ([14]; dosage 320 g/ha) | Pre-emergence action against POLCO in % ([16]; dosage 320 g/ha) | Pre-emergence action against ZEAMX in % ([17]; 80 g/ha) | Pre-emergence action against ALOMY ([19]; 320 g/ha) | Pre-emergence action against AMARE in % ([20]; 80 g/ha) | Pre-emergence action against AMARE in % ([20]; 320 g/ha) | Pre-emergence action against LOLRI in % [21] | Post-emergence action against ORYSA in % [22, 30] | also measured
CCOC(=O)COc1nn(-c2ncccc2F)c(-c2ccc(F)nc2)c1F [Example I-354] | 100% | 90% | 80% | 80% | 90% | 100% | 80% | 90% | 0% | 90% | 80% | 80% | 80% | 80% | 0% | 80% | 80% | 90% | – | – | Post-emergence action against VIOTR in % ([5]; 80 g/ha): 80%; Post-emergence action against VIOTR in % ([5]; 320 g/ha): 80%; Post-emergence action against LOLRI in % [6]: 90%; Post-emergence action against TRZAS in % [11]: 0%; Post-emergence action against SETVI in % ([13]; dosage 80 g/ha): 80%; Post-emergence action against ALOMY in % ([15]; 320 g/ha): 90%; Post-emergence action against AVEFA in % [18]: 80%
O=C(O)COc1nn(-c2ccccn2)c(-c2ccc(F)nc2)c1F [Example I-373] | 90% | 80% | 80% | 80% | 90% | 90% | 80% | 90% | 0% | 80% | 90% | – | 90% | 90% | 0% | 90% | – | 90% | 80% | 0% | Pre-emergence action against ZEAMX in % ([17]; 320 g/ha): 0%; Post-emergence action against ABUTH in % [23]: 80%
O=C(COc1nn(-c2ccccn2)c(-c2ccc(F)nc2)c1Br)OCC1CCCO1 (stereo not shown) [Example I-93] | 100% | 100% | 80% | – | 100% | – | – | – | – | – | – | 80% | – | 90% | 0% | 100% | 90% | 100% | 100% | 20% | Pre-emergence action against PHBPU in % [24]: 80%; Pre-emergence action against AVEFA in % [25]: 90%; Pre-emergence action against VERPE in % [26]: 100%; Post-emergence action against VERPE in % ([9]; dosage 80 g/ha): 80%; Post-emergence action against ZEAMX in % (crop plant compatibility) ([10]; 20 g/ha, ZEAMX, effect in comparison to untreated controls): 20%; Post-emergence action against ORYSA in % ([22]; 20 g/ha, effect vs untreated controls): 10%; Post-emergence action against ALOMY in % ([15]; 80 g/ha): 100%; Pre-emergence action against VIOTR in % [27]: 100%; Pre-emergence action against POLCO in % ([16]; dosage 80 g/ha): 90%; Pre-emergence action against ALOMY ([19]; 80 g/ha): 90%
